This assay addresses fMet-Leu-Phe receptor (Homo sapiens) (UniProt P21462). Description: human FPR1 ligand displacement potency – cell-based, flow cytometry, Ki from IC50, dose response (AID 724). Particulars: FPR1-expressing cells, fluorescent ligand binding competition; for pIC50: measured here: IC50 of ligand binding inhibition. In general terms: In flow cytometry, cells or beads pass a laser one at a time.

Molecules are shown by their SMILES. pIC50, pKi: −log10 of the molar value. Calls of active or inactive are those of the source. How the calls were made is not given here.

What is called Ki is a measure of affinity in units of concentration, obtained from inhibition or displacement. For orientation: pIC50 means the negative decadic logarithm of the IC50, by convention in mol/L. One may read the pKi as the negative decadic logarithm of the Ki, by convention in mol/L.

Sequence of fMet-Leu-Phe receptor (Homo sapiens) (P21462 whole entry, looked up): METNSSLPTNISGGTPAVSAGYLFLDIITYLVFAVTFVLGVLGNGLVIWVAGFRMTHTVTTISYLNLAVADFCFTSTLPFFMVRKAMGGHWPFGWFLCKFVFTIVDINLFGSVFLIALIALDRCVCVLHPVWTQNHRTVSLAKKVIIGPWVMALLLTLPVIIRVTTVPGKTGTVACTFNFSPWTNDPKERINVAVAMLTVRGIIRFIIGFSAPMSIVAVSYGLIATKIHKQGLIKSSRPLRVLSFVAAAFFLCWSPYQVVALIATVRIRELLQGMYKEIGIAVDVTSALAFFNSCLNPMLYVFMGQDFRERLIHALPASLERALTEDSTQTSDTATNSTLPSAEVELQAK

In the case of `O=C1C(=O)N(CN2CCOCC2)C(c2ccc(Br)cc2)/C1=C(\O)c1ccccc1` (stereo not given), the Ki is > 44.3 µM (inactive).
In the case of `O=C(C1=C(O)C(=O)N(CCCN2CCOCC2)C1c1cccnc1)c1cc2ccccc2o1` (stereo not given), the Ki is > 44.3 µM (inactive).
For `COCCCN1C(=O)C(=O)/C(=C(/O)c2ccccc2)C1c1ccc(O)c(OC)c1` (stereo not given), the Ki entry was “inactive” and the negative-log IC50 (pIC50) is 4.30.
With `O=C(C1=C(O)C(=O)N(CCCn2ccnc2)C1c1cccnc1)c1ccco1` (stereo not given), the Ki was > 44.3 µM (inactive).
Consider `COc1cc(C2C(C(C)=O)=C(O)C(=O)N2c2ccc(Br)cc2)ccc1O` (stereo not given), for which the Ki is > 44.3 µM (inactive).
With `COc1ccc(C2C(C(=O)c3ccco3)=C(O)C(=O)N2CCN2CCOCC2)c(OC)c1` (stereo not given), the negative logarithm of the Ki (pKi) is 5.19 and the pIC50 was 5.01.
Regarding `COc1ccc(C2C(C(=O)c3ccco3)=C(O)C(=O)N2CCCN2CCOCC2)cc1OC` (stereo not given), the Ki is > 44.3 µM (inactive).
Take `COc1ccc(C2C(C(=O)c3cccs3)=C(O)C(=O)N2CCCn2ccnc2)cc1` (stereo not given): the pKi was 5.33 and the negative-log IC50 (pIC50) was 5.15.
In turn, `CCc1cc2c(=O)c(-c3nc4ccccc4n3C)c(C)oc2cc1OC(C)=O` gave a pIC50 of 6.30.
For the compound `COc1ccc(OC)c(C2/C(=C(\O)c3ccccc3)C(=O)C(=O)N2c2ccc(C)c(Cl)c2)c1` (stereo not given), the Ki result is “inactive” and the pIC50 was 4.59.
In the case of `COc1ccccc1-c1c(C(F)(F)F)oc2cc(OC(=O)c3ccco3)ccc2c1=O`, the pIC50 was 5.77.
As for `COc1ccc(C2C(C(=O)c3cccs3)=C(O)C(=O)N2CCN2CCOCC2)c(OC)c1` (stereo not given), the negative logarithm of the Ki (pKi) was 5.54 and the pIC50 was 5.36.
In the case of `COc1ccc(C2C(C(=O)c3cc4ccccc4o3)=C(O)C(=O)N2CCN(C)C)cc1OC` (stereo not given), the Ki is > 44.3 µM (inactive).
Turning to `COCCN1C(=O)C(=O)/C(=C(/O)c2ccccc2)C1c1cc(OC)ccc1OC` (stereo not given), the pKi is 5.74 and the pIC50 was 5.55.
Consider `O=C1C(=O)N(c2ccc(F)cc2)C(c2ccc(Br)cc2)/C1=C(/O)c1ccccc1` (stereo not given), for which the Ki is > 44.3 µM (inactive).
Compound `Cc1nc2c(-c3ccc(Cl)cc3)c(C(F)(F)F)[nH]n2c(=O)c1Cc1ccccc1` had a pIC50 of 5.42.
Take `COCCCN1C(=O)C(=O)/C(=C(/O)c2ccccc2)C1c1ccc(C(C)C)cc1` (stereo not given): the Ki result is “inactive” and the negative logarithm of the IC50 (pIC50) is 4.51.
Consider `COc1ccc(/C(O)=C2/C(=O)C(=O)N(CCc3c[nH]c4ccccc34)C2c2ccc(C(C)C)cc2)cc1` (stereo not given), for which the Ki was > 44.3 µM (inactive).
`CC(=O)C1=C(O)C(=O)N(CCc2c(C)[nH]c3ccccc23)C1c1cccc(F)c1` (stereo not given): the Ki result is “inactive” and the pIC50 is 4.76.
For `Cc1ccc(/C(O)=C2\C(=O)C(=O)N(Cc3cccnc3)C2c2ccc(Br)cc2)cc1` (stereo not given), the Ki was > 44.3 µM (inactive).
The same measure, in the same setting: with `N#Cc1c(N/C(=C\C(=O)c2ccccc2)C(=O)O)sc2c1CCC2` the figure was > 44.3 µM (inactive).
`O=C(Oc1ccc2c(=O)c(-c3ccccc3Cl)c(C(F)(F)F)oc2c1)c1cccs1` gave a pIC50 of 5.77.
For `CCCCCCOc1cccc(N2C(=O)C(=O)/C(=C(\O)c3ccccc3)C2c2cccc(F)c2)c1` (stereo not given), the Ki was > 44.3 µM (inactive).
For the compound `O=C(C1=C(O)C(=O)N(CCc2ccccc2)C1c1ccc(Cl)cc1)c1cccs1` (stereo not given), the pKi was 5.16 and the pIC50 was 4.97.
On to `COc1ccc(-c2c(C(F)(F)F)oc3cc(OC(=O)c4cccnc4)ccc3c2=O)cc1OC`, for which the negative logarithm of the IC50 (pIC50) is 4.87.
The same measure, in the same setting: with `COc1ccc(-c2c(C(F)(F)F)oc3cc(OC(=O)c4ccco4)ccc3c2=O)cc1OC` the figure was 5.30.
`COc1ccc(C2/C(=C(\O)c3ccccc3)C(=O)C(=O)N2c2cccc(Cl)c2)c(OC)c1` (stereo not given): the Ki entry is “inactive” and the pIC50 is 4.32.
For `O=C(O)CCCN1C(=O)C(=O)/C(=C(/O)c2ccccc2)C1/C=C/c1ccccc1` (stereo not given), the Ki is > 44.3 µM (inactive).
Still for that read-out and setting: with `COc1ccc(OC)c(C2/C(=C(\O)c3ccc(C)cc3)C(=O)C(=O)N2CCC(=O)O)c1` (stereo not given) the figure was > 44.3 µM (inactive).
With `COc1ccc(C2/C(=C(\O)c3ccc(C)cc3)C(=O)C(=O)N2Cc2cccnc2)c(OC)c1` (stereo not given), the Ki entry was “inactive” and the negative-log IC50 (pIC50) was 4.22.
As for `COc1ccc(/C(O)=C2/C(=O)C(=O)NC2c2ccc(OC)cc2OC)cc1` (stereo not given), the Ki is > 44.3 µM (inactive).
Take `COc1ccc(OC)c(C2/C(=C(\O)c3ccccc3)C(=O)C(=O)N2c2cccnc2)c1` (stereo not given): the negative-log Ki (pKi) is 5.22 and the pIC50 was 5.04.
As for `O=C1NC(c2ccc(Br)cc2)/C(=C(\O)c2ccc(Cl)cc2)C1=O` (stereo not given), the Ki was > 44.3 µM (inactive).
As to `CCCCCCN1C(=O)C(=O)/C(=C(\O)c2ccccc2)C1c1ccc(O)c(OC)c1` (stereo not given), the pKi was 5.33 and the negative-log IC50 (pIC50) was 5.14.
As for `Cc1ccc(/C(O)=C2\C(=O)C(=O)N(c3nnc(C)s3)C2c2ccc(C(C)C)cc2)cc1` (stereo not given), the Ki is > 44.3 µM (inactive).
The same measure, in the same setting: under `Cc1ccc(N2C(=O)C(=O)/C(=C(\O)c3ccccc3)C2c2cccc(F)c2)cc1Br` (stereo not given) stands > 44.3 µM (inactive); under `COc1cc(C2C(C(=O)c3cc4ccccc4o3)=C(O)C(=O)N2CCN(C)C)ccc1O` (stereo not given), > 44.3 µM (inactive).
As for `CC(C)c1ccc(C2/C(=C(\O)c3ccccc3)C(=O)C(=O)N2Cc2cccnc2)cc1` (stereo not given), the Ki entry was “inactive” and the pIC50 is 4.29.
With `O=C(C1=C(O)C(=O)N(CCCn2ccnc2)C1c1cccnc1)c1cc2ccccc2o1` (stereo not given), the Ki is > 44.3 µM (inactive).
As to `COc1ccc(C2/C(=C(\O)c3ccccc3)C(=O)C(=O)N2CCCn2ccnc2)c(OC)c1` (stereo not given), the pKi is 5.47 and the pIC50 is 5.28.
